The subject of this experiment is 171881-019-R-J1-PDC complex spheroid viability. The experiment in a line: Anticancer human tumor 171881-019-R-J1-PDC patient-derived invasive breast carcinoma cell line growth inhibition. Conditions: for viability, T/C: stronger effect = lower value. The gist of the method: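 Complex spheroids of tumor cells with HUVEC and human MSCs, exposed to iadademstat combined with other agents. Each agent tested in half-log steps from near clinical Cmax (else 10 microM top), DMSO ≤0.25%.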

The mark [1] stands for this setting: curve of first compound, second compound 0.1 µM.
[2] abbreviates: curve of first compound, second compound 0.316 µM.
Where [3] appears, read: curve of first compound, second compound 1 µM.
Setting [4] is: curve of first compound, second compound 3.16 µM.
[5] abbreviates: curve of first compound, second compound 10 µM.
The mark [6] stands for this setting: second compound 0.1 µM, first compound 0.0316 µM.
The mark [7] stands for this setting: second compound 0.1 µM, first compound 0.1 µM.
Setting [8] is: second compound 0.1 µM, first compound 0.316 µM.
[9] abbreviates: second compound 0.1 µM, first compound 1 µM.
Setting [10] is: second compound 0.316 µM, first compound 0.0316 µM.
Setting [11] is: second compound 0.316 µM, first compound 0.1 µM.
Setting [12] is: second compound 0.316 µM, first compound 0.316 µM.
Setting [13] is: second compound 0.316 µM, first compound 1 µM.
The mark [14] stands for this setting: second compound 1 µM, first compound 0.0316 µM.
[15] abbreviates: second compound 1 µM, first compound 0.1 µM.
Setting [16] is: second compound 1 µM, first compound 0.316 µM.
The mark [17] stands for this setting: second compound 1 µM, first compound 1 µM.
Where [18] appears, read: second compound 3.16 µM, first compound 0.0316 µM.
The mark [19] stands for this setting: second compound 3.16 µM, first compound 0.1 µM.
Where [20] appears, read: second compound 3.16 µM, first compound 0.316 µM.
The mark [21] stands for this setting: second compound 3.16 µM, first compound 1 µM.
The mark [22] stands for this setting: second compound 10 µM, first compound 0.0316 µM.
[23] abbreviates: second compound 10 µM, first compound 0.1 µM.
Setting [24] is: second compound 10 µM, first compound 0.316 µM.
The mark [25] stands for this setting: second compound 10 µM, first compound 1 µM.

Values joined by “and” are separate entries in the source; they are usually repeats but may differ in a detail not shown here. Equal values may be shown once.

The IC50 is the point on the concentration scale where inhibition reaches its midpoint. Broadly, the viability, T/C is the result in the treated group divided by that in the control group, in per cent. In the case of `O=C(c1cc(Cc2n[nH]c(=O)c3ccccc23)ccc1F)N1CCN(C(=O)C2CC2)CC1` + NC1CCC(NC2CC2c2ccccc2)CC1, the concentration for half-maximal inhibition (IC50) is over 10 µM under setting [1]; over 10 µM under setting [2]; over 10 µM under setting [3]; over 10 µM under setting [4]; over 10 µM under setting [5]. The viability, T/C runs as follows: under setting [6], 85.3%; under setting [7], 86.6%; under setting [8], 82.4%; under setting [9], 86.6%; (second compound 0.1 µM, first compound 3.16 µM) 84.7%; (second compound 0.1 µM, first compound 10 µM) 85.1%. The viability, T/C is, setting by setting: under setting [10], 91.7%; under setting [11], 82.7%; under setting [12], 87.7%; under setting [13], 79.6%; (second compound 0.316 µM, first compound 3.16 µM) 86.2%; (second compound 0.316 µM, first compound 10 µM) 82%. In addition, the viability, T/C under setting [14] was 90.6%; the viability, T/C under setting [15] was 95.9%; the viability, T/C under setting [16] was 88.9%; the viability, T/C under setting [17] is 79.9%; the viability, T/C (second compound 1 µM, first compound 3.16 µM) was 85.8%; the viability, T/C (second compound 1 µM, first compound 10 µM) was 80%. Further, the viability, T/C is 99.8% under setting [18]; 87.8% under setting [19]; 86.3% under setting [20]; 79.3% under setting [21]; 88.4% (second compound 3.16 µM, first compound 3.16 µM); 80.9% (second compound 3.16 µM, first compound 10 µM). The viability, T/C under setting [22] is 83.8%; the viability, T/C under setting [23] was 82.9%; the viability, T/C under setting [24] was 78.3%; the viability, T/C under setting [25] was 74.2%; the viability, T/C (second compound 10 µM, first compound 3.16 µM) is 81.9%; the viability, T/C (second compound 10 µM, first compound 10 µM) was 80.5%.
With `CC(C)CC(NC(=O)C(Cc1ccccc1)NC(=O)c1cnccn1)B(O)O` (centres undefined), the viability, T/C runs as follows: (compound 0.000316 µM) 9.71% and 22.8%; (compound 0.001 µM) 1.12% and 20.1%; (compound 0.00316 µM) 0.41% and 17.8%; (compound 0.01 µM) 0.25% and 10.1%; (compound 0.0316 µM) 0.24% and 12%; (compound 0.1 µM) 0.17% and 6.28%. Besides, the concentration for half-maximal inhibition (IC50) (curve of compound) was under 0.000316 µM.
As to `COc1cc(Nc2ncc3c(n2)-c2ccc(Cl)cc2C(c2c(F)cccc2OC)=NC3)ccc1C(=O)O` + NC1CCC(NC2CC2c2ccccc2)CC1, the concentration for half-maximal inhibition (IC50) under setting [1] is over 1 µM; the IC50 under setting [2] is over 1 µM; the 50% inhibitory concentration (IC50) under setting [3] is over 1 µM; the 50% inhibitory concentration (IC50) under setting [4] is over 1 µM; the IC50 under setting [5] is over 1 µM. The viability, T/C (second compound 0.1 µM, first compound 0.00316 µM) was 105%; the viability, T/C (second compound 0.1 µM, first compound 0.01 µM) was 99.2%; the viability, T/C under setting [6] is 100%; the viability, T/C under setting [7] was 99.6%; the viability, T/C under setting [8] was 93.7%; the viability, T/C under setting [9] was 60.1%. Also, the viability, T/C (second compound 0.316 µM, first compound 0.00316 µM) is 111%; the viability, T/C (second compound 0.316 µM, first compound 0.01 µM) was 92.9%; the viability, T/C under setting [10] is 98.6%; the viability, T/C under setting [11] was 95.9%; the viability, T/C under setting [12] was 92.4%; the viability, T/C under setting [13] was 59.2%. Also, the viability, T/C runs as follows: (second compound 1 µM, first compound 0.00316 µM) 112%; (second compound 1 µM, first compound 0.01 µM) 107%; under setting [14], 93.5%; under setting [15], 105%; under setting [16], 88.5%; under setting [17], 62.2%. Also, the viability, T/C (second compound 3.16 µM, first compound 0.00316 µM) is 110%; the viability, T/C (second compound 3.16 µM, first compound 0.01 µM) is 104%; the viability, T/C under setting [18] was 95.7%; the viability, T/C under setting [19] is 88.3%; the viability, T/C under setting [20] is 92%; the viability, T/C under setting [21] is 60.9%. The viability, T/C runs as follows: (second compound 10 µM, first compound 0.00316 µM) 113%; (second compound 10 µM, first compound 0.01 µM) 111%; under setting [22], 97.6%; under setting [23], 104%; under setting [24], 86.7%; under setting [25], 60.7%.
With `Nc1ncn(C2CC(O)C(CO)S2)c(=O)n1` (centres undefined) + NC1CC1c1ccc(-c2cccc(O)c2)cc1, the 50% inhibitory concentration (IC50) under setting [1] worked out at 0.0939 µM; the concentration for half-maximal inhibition (IC50) under setting [2] stood at 0.119 µM; the 50% inhibitory concentration (IC50) under setting [3] came to 0.102 µM; the half-maximal inhibitory concentration (IC50) under setting [4] worked out at 0.0993 µM; the IC50 under setting [5] was determined as 0.0802 µM. Besides, the viability, T/C runs as follows: (second compound 0.1 µM, first compound 0.000949 µM) 101%; (second compound 0.1 µM, first compound 0.003 µM) 106%; (second compound 0.1 µM, first compound 0.00949 µM) 102%; (second compound 0.1 µM, first compound 0.03 µM) 75.3%; (second compound 0.1 µM, first compound 0.0949 µM) 52.3%; (second compound 0.1 µM, first compound 0.3 µM) 34.4%. The viability, T/C is, setting by setting: (second compound 0.316 µM, first compound 0.000949 µM) 111%; (second compound 0.316 µM, first compound 0.003 µM) 106%; (second compound 0.316 µM, first compound 0.00949 µM) 101%; (second compound 0.316 µM, first compound 0.03 µM) 75.8%; (second compound 0.316 µM, first compound 0.0949 µM) 56.2%; (second compound 0.316 µM, first compound 0.3 µM) 32.1%. Besides, the viability, T/C reads like this: (second compound 1 µM, first compound 0.000949 µM) 108%; (second compound 1 µM, first compound 0.003 µM) 95.7%; (second compound 1 µM, first compound 0.00949 µM) 98.1%; (second compound 1 µM, first compound 0.03 µM) 76.8%; (second compound 1 µM, first compound 0.0949 µM) 51.4%; (second compound 1 µM, first compound 0.3 µM) 30.3%. In addition, the viability, T/C is, setting by setting: (second compound 3.16 µM, first compound 0.000949 µM) 95.1%; (second compound 3.16 µM, first compound 0.003 µM) 90.8%; (second compound 3.16 µM, first compound 0.00949 µM) 88.7%; (second compound 3.16 µM, first compound 0.03 µM) 69.2%; (second compound 3.16 µM, first compound 0.0949 µM) 52.1%; (second compound 3.16 µM, first compound 0.3 µM) 30.1%. For the same molecule, the viability, T/C (second compound 10 µM, first compound 0.000949 µM) was 75.8%; the viability, T/C (second compound 10 µM, first compound 0.003 µM) was 71.8%; the viability, T/C (second compound 10 µM, first compound 0.00949 µM) is 81.3%; the viability, T/C (second compound 10 µM, first compound 0.03 µM) is 61.7%; the viability, T/C (second compound 10 µM, first compound 0.0949 µM) was 48.9%; the viability, T/C (second compound 10 µM, first compound 0.3 µM) is 31%.
For the molecule `CC1COCCN1c1cc(C2(S(C)(=N)=O)CC2)nc(-c2ccnc3[nH]ccc23)n1` (centres undefined), the viability, T/C (compound 0.0316 µM) was 94.6% and 94.9%; the viability, T/C (compound 0.1 µM) was 89.5% and 95.9%; the viability, T/C (compound 0.316 µM) was 98.2% and 91.3%; the viability, T/C (compound 1 µM) was 73% and 58.9%; the viability, T/C (compound 3.16 µM) is 17.2% and 21.2%; the viability, T/C (compound 10 µM) is 8.54% and 9.3%. The half-inhibitory concentration (IC50) (curve of compound) was 1.61 µM and 1.33 µM.

Values taken from PubChem BioAssay AID1918932 (Molecular Pharmacology Branch, DTP, NCI, 2023).
